Laboratory results: patent publication US20220220128A1, “HETEROCYCLIC COMPOUNDS AS KINASE INHIBITORS, COMPOSITIONS COMPRISING THE HETEROCYCLIC COMPOUND, AND METHODS OF USE THEREOF” (JS Innopharm (Shanghai) Ltd, priority 2019, published 2022)

Legend:
human KDR kinase = target: T1, human KDR kinase (Homo sapiens, UniProt P35968); assay: KDR Kinase Assay (LanthaScreen TR-FRET enzymatic assay); format: biochemical; conditions: 1.2 nM KDR, 92 μM ATP
T1 construct: purchased Carna 08-191
Procedure: Compounds were tested in a LanthaScreen™ time-resolved fluorescence energy transfer (TR-FRET) enzymatic assay from Invitrogen. The assay used human KDR kinase (Carna 08-191). Test compounds were prepared and diluted in DMSO in 3-fold serial dilutions to 50× of the final testing concentrations. The compounds were then further diluted to 5× by the kinase reaction buffer (50 mM HEPES pH 7.5, 0.0015% Brij-35). The enzymatic reaction for compound testing was performed in a white 384-well polypropylene plate (Corning 3573) with a total reaction volume of 25 μl containing 1.2 nM KDR, 3 μM peptide substrate FAM-P22 (GL Biochem 112393), and 92 μM ATP (Sigma A7699-1G). The assay started with loading RET diluted in kinase reaction buffer to wells, followed by addition of equal volume of 5× compounds for 15-min incubation at the room temperature for pre-treatment. The enzymatic reaction was initiated by addition of mixture of the substrate and ATP prepared in kinase reaction buffer. After incubation at 28° C. for one hour, 25 μl of stopper buffer (a mixture of 100 mM HEPES pH 7.5 buffer, 0.015% Brij-35, 50 mM EDTA and 0.2% of coating reagent 3 (Cliper Lifesciences)) and produce TR-FRET signals. After 30 minutes of incubation at room temperature, the plate was read in a Caliper with the following settings: Excitation 340 nm (30)/Emission1 495 nm (10)/Emission2 520 nm (25). The TR-FRET values were dimensionless numbers that were calculated as the ratio of the acceptor ([…]) signal to the donor (Terbium) signal. Percent of control was calculated as the percentage of compound-treated vs 1% DMSO vehicle-treated. The dose-response curves were generated and the IC50s were calculated by nonlinear sigmoid curve fitting using XLFit.

TT cells = assay: TT Cell Proliferation Assay (WST-8, 8 days); format: cell-based; conditions: Homo sapiens, TT, 192 h, growth inhibition in TT cells, read-out: TT Cellular Activity
Procedure: Compounds disclosed herein were tested for the inhibition of RET by a cancer cell proliferation assay commonly known as MTT assay. In this assay, a complete media was prepared by adding 10% fetal bovine serum to RPMI-1640 medium (Life technology). TT cells were added to each of 88 wells of a 96 well plate at a seeding density of 6,000 cells/well/90 μL. The cells were allowed to attach to the plate by incubating at 37° C. for 24 hours. The compound was dissolved in DMSO (SIGMA). A solution of test compound was prepared in complete media by serial dilution to obtain the following concentrations: 50 μM, 15 μM, 5 μM, 1.5 μM, 0.5 μM, 0.15 μM, 0.05 μM, 0.015 μM and 0.005 μM. The test compound solution (10 μL) was added to each of 80 cell-containing wells. The final concentrations of the compound were following: 5 μM, 1.5 μM, 0.5 μM, 0.15 μM, 0.05 μM, 0.015 μM, 0.005 μM, 0.0015 μM and 0.0005 μM. The final concentration of DMSO is 0.5%. To the 8 remaining cell-containing wells, only complete media (containing 0.5% DMSO) was added to form a control group in order to measure maximal proliferation. To the remaining 8 empty wells, complete media was added to for a vehicle control group in order to measure background. The plates were incubated at 37° C. for 8 days. 10 μL WST-8 solution (DOJINDO, Cell Counting KIT-8) was added to each well. The plates were further incubated at 37° C. for 5 hours, and then read for the absorbance using a microplate reader at 450 nm. The IC50 was calculated using GraphPad Prism.

human RET kinase = target: T2, human RET kinase (Homo sapiens, UniProt P07949); assay: RET Kinase Assay (LanthaScreen TR-FRET enzymatic assay); format: biochemical; conditions: 7 nM RET, 23 μM ATP
T2 construct: purchased Carna 08-159
Procedure: Compounds were tested in a LanthaScreen™ time-resolved fluorescence energy transfer (TR-FRET) enzymatic assay from Invitrogen. The assay used human RET kinase (Carna 08-159). Test compounds were prepared and diluted in DMSO in 3-fold serial dilutions to 50× of the final testing concentrations. The compounds were then further diluted to 5× by the kinase reaction buffer (50 mM HEPES pH 7.5, 0.0015% Brij-35). The enzymatic reaction for compound testing was performed in a white 384-well polypropylene plate (Corning 3573) with a total reaction volume of 25 μl containing 7 nM RET, 3 μM peptide substrate FAM-P2 (GL Biochem 112394), and 23 μM ATP (Sigma A7699-1G). The assay started with loading RET diluted in kinase reaction buffer to wells, followed by addition of equal volume of 5× compounds for 15-min incubation at the room temperature for pre-treatment. The enzymatic reaction was initiated by addition of mixture of the substrate and ATP prepared in kinase reaction buffer. After incubation at 28° C. for one hour, 25 μl of stopper buffer (a mixture of 100 mM HEPES pH 7.5 buffer, 0.015% Brij-35, 50 mM EDTA and 0.2% of coating reagent 3 (Cliper Lifesciences)) and produce TR-FRET signals. After 30 minutes of incubation at room temperature, the plate was read in a Caliper with the following settings: Excitation 340 nm (30)/Emission1 495 nm (10)/Emission2 520 nm (25). The TR-FRET values were dimensionless numbers that were calculated as the ratio of the acceptor ([…]) signal to the donor (Terbium) signal. Percent of control was calculated as the percentage of compound-treated vs 1% DMSO vehicle-treated. The dose-response curves were generated and the IC50s were calculated by nonlinear sigmoid curve fitting using XLFit.

T1 sequence (P35968 20-1356): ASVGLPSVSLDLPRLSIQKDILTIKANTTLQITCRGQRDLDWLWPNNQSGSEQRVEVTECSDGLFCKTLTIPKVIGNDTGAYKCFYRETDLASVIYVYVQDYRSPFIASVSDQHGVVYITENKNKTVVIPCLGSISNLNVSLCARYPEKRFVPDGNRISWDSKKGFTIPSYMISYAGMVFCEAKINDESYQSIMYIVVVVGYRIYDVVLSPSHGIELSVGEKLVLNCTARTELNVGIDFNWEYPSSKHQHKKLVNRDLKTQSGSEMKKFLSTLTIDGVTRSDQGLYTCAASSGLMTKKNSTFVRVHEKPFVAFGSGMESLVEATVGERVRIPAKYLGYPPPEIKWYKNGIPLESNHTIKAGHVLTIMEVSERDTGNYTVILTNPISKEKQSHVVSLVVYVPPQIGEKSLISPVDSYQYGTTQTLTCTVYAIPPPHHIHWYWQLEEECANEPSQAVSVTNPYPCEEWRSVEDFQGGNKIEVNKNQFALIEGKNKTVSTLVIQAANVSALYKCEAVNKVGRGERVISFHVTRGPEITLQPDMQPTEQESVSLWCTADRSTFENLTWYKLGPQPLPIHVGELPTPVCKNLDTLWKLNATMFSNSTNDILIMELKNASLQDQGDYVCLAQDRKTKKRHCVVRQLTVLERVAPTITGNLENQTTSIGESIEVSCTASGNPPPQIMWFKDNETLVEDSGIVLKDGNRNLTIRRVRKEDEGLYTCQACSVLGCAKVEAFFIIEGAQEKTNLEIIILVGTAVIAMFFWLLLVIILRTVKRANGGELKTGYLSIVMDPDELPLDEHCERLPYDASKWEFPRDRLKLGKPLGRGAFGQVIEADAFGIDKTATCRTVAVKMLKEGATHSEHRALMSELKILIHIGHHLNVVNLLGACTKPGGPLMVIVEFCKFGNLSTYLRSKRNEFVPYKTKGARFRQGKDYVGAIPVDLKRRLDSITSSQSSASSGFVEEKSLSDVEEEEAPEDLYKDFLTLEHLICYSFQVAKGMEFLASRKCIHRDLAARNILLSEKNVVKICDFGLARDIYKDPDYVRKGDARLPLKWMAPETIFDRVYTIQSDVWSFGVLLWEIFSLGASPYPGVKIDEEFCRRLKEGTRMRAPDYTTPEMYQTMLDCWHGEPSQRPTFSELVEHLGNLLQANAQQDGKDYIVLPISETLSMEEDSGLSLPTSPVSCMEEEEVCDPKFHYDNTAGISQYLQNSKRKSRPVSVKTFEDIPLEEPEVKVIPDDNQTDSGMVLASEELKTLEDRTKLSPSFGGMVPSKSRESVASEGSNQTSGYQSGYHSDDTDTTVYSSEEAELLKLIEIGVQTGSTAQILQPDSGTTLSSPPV
T2 sequence (P07949 29-1114): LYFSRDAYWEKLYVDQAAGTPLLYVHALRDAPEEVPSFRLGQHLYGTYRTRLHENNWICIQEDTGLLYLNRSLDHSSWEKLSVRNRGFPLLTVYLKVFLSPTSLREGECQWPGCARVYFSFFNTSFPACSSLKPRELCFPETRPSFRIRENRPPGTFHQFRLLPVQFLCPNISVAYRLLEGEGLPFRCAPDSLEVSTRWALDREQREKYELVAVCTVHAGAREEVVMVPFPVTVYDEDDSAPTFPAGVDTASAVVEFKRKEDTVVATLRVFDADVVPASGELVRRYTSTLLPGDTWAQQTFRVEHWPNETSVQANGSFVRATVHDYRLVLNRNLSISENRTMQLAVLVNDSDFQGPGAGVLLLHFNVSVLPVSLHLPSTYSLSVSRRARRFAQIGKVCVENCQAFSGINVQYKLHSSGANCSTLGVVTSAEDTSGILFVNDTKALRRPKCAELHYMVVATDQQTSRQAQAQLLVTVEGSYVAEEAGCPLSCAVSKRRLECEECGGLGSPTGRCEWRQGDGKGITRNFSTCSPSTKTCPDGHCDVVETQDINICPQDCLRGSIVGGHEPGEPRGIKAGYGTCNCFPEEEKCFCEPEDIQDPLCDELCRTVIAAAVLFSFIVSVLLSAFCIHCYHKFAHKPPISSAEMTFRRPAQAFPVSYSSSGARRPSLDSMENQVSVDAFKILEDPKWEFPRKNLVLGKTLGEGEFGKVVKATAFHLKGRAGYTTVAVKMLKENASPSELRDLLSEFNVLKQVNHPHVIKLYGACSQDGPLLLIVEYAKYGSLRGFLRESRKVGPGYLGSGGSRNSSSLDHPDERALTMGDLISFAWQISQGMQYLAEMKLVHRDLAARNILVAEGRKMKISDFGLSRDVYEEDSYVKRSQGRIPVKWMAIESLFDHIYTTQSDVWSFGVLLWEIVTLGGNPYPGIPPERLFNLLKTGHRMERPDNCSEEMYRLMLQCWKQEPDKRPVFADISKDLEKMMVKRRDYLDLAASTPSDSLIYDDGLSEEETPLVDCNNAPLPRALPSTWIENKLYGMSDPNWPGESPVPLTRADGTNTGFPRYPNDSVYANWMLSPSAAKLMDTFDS

SMILES	IC50 (human KDR kinase) [nM]	IC50 (human RET kinase) [nM]	IC50 (TT cells) [nM]
Cn1cc(-c2cc(-c3ccc(N4C[C@@H]5[C@H](C4)[C@H]5NC(=O)c4ncccc4C(F)(F)F)nc3)c3c(C#N)cnn3c2)cn1 [Example 21, N-((1R,5S,6s)-3-(5-(3-cyano-6-(1-methyl-1H-pyrazol-4-yl)pyrazolo[1,5-a]pyridin-4-yl)pyridin-2-yl)-3-azabicyclo[3.1.0]hexan-6-yl)-3-(trifluoromethyl)picolinamide]	≤ 10	≤ 10	10 to 50
Cn1cc(-c2cc(-c3ccc(N4C5CC6CC4CC(NC(=O)c4ncccc4Cl)(C6)C5)nc3)c3c(C#N)cnn3c2)cn1 [Example 89, 3-chloro-N-((1R,3S,5s,7s)-2-(5-(3-cyano-6-(1-methyl-1H-pyrazol-4-yl)pyrazolo[1,5-a]pyridin-4-yl)pyridin-2-yl)-2-azaadamantan-5-yl)picolinamide]	≤ 10	≤ 10	≤ 10
COc1ccc(NC(=O)N[C@H]2[C@@H]3CN(c4ccc(-c5cc(OCC(C)(C)O)cn6ncc(C#N)c56)cn4)C[C@@H]32)cn1 [Example 183, 1-((1R,5S,6s)-3-(5-(3-cyano-6-(2-hydroxy-2-methylpropoxy)pyrazolo[1,5-a]pyridin-4-yl)pyridin-2-yl)-3-azabicyclo[3.1.0]hexan-6-yl)-3-(6-methoxypyridin-3-yl)urea]	> 100	10 to 50	> 100
COc1ccc(CN2C[C@@H]3CN(c4ccc(-c5cc(OCC(C)(C)O)cn6ncc(C#N)c56)cn4)C[C@@H]3C2)cn1 [Example 14, 6-(2-hydroxy-2-methylpropoxy)-4-(6-((3aR,6aS)-5-((6-methoxypyridin-3-yl)methyl)hexahydropyrrolo[3,4-c]pyrrol-2(1H)-yl)pyridin-3-yl)pyrazolo[1,5-a]pyridine-3-carbonitrile]	> 100	≤ 10	10 to 50
CC(C)C(=O)N1C[C@@H]2CN(c3ccc(-c4cc(-c5cnn(C)c5)cn5ncc(C#N)c45)cn3)C[C@@H]2C1 [Example 10, 4-(6-((3aR,6aS)-5-isobutyrylhexahydropyrrolo[3,4-c]pyrrol-2(1H)-yl)pyridin-3-yl)-6-(1-methyl-1H-pyrazol-4-yl)pyrazolo[1,5-a]pyridine-3-carbonitrile]	10 to 50	≤ 10	10 to 50
Cn1cc(-c2cc(-c3ccc(N4C[C@@H]5[C@H](C4)[C@H]5NC(=O)c4cc(F)ccc4Cl)nc3)c3c(C#N)cnn3c2)cn1 [Example 28, 2-chloro-N-((1R,5S,6s)-3-(5-(3-cyano-6-(1-methyl-1H-pyrazol-4-yl)pyrazolo[1,5-a]pyridin-4-yl)pyridin-2-yl)-3-azabicyclo[3.1.0]hexan-6-yl)-5-fluorobenzamide]	≤ 10	≤ 10	10 to 50
CCOc1cc(-c2ccc(N3C[C@@H]4C[C@@](C)(NC(=O)CC(C)C)C[C@@H]4C3)nc2)c2c(C#N)cnn2c1 [Example 62, N-((3aR,5s,6aS)-2-(5-(3-cyano-6-ethoxypyrazolo[1,5-a]pyridin-4-yl)pyridin-2-yl)-5-methyloctahydrocyclopenta[c]pyrrol-5-yl)-3-methylbutanamide]	50 to 100	≤ 10	10 to 50
Cc1cccc(Cl)c1C(=O)NC[C@@H]1[C@H]2CN(c3ccc(-c4cc(-c5cnn(C)c5)cn5ncc(C#N)c45)cn3)C[C@@H]12 [Example 185, 2-chloro-N-(((1R,5S,6s)-3-(5-(3-cyano-6-(1-methyl-1H-pyrazol-4-yl)pyrazolo[1,5-a]pyridin-4-yl)pyridin-2-yl)-3-azabicyclo[3.1.0]hexan-6-yl)methyl)-6-methylbenzamide]	≤ 10	≤ 10	10 to 50

Second part, led by results:

IC50 (human KDR kinase) [nM]	IC50 (human RET kinase) [nM]	SMILES	IC50 (TT cells) [nM]
≤ 10	≤ 10	Cc1ccc(F)cc1C(=O)N[C@H]1[C@@H]2CN(c3ccc(-c4cc(-c5cnn(C)c5)cn5ncc(C#N)c45)cn3)C[C@@H]21 [Example 26, N-((1R,5S,6s)-3-(5-(3-cyano-6-(1-methyl-1H-pyrazol-4-yl)pyrazolo[1,5-a]pyridin-4-yl)pyridin-2-yl)-3-azabicyclo[3.1.0]hexan-6-yl)-5-fluoro-2-methylbenzamide]	10 to 50
10 to 50	≤ 10	Cn1ccc(-c2cc(-c3ccc(N4C[C@@H]5C[C@@](C)(NC(=O)c6ncccc6F)C[C@@H]5C4)nc3)c3c(C#N)cnn3c2)n1 [Example 123, N-((3aR,5s,6aS)-2-(5-(3-cyano-6-(1-methyl-1H-pyrazol-3-yl)pyrazolo[1,5-a]pyridin-4-yl)pyridin-2-yl)-5-methyloctahydrocyclopenta[c]pyrrol-5-yl)-3-fluoropicolinamide]	≤ 10
> 100	10 to 50	CC(C)(O)COc1cc(-c2ccc(N3C[C@@H]4[C@@H](CNS(=O)(=O)c5c(F)cccc5Cl)[C@@H]4C3)nc2)c2c(C#N)cnn2c1 [Example 184, 2-chloro-N-(((1R,5S,6r)-3-(5-(3-cyano-6-(2-hydroxy-2-methylpropoxy)pyrazolo[1,5-a]pyridin-4-yl)pyridin-2-yl)-3-azabicyclo[3.1.0]hexan-6-yl)methyl)-6-fluorobenzenesulfonamide]	50 to 100
≤ 10	≤ 10	Cn1cc(-c2cc(-c3ccc(N4C[C@@H]5C[C@@](C)(NC(=O)c6ncccc6F)C[C@@H]5C4)nc3)c3c(C#N)cnn3c2)cn1 [Example 91, N-((3aR,5s,6aS)-2-(5-(3-cyano-6-(1-methyl-1H-pyrazol-4-yl)pyrazolo[1,5-a]pyridin-4-yl)pyridin-2-yl)-5-methyloctahydrocyclopenta[c]pyrrol-5-yl)-3-fluoropicolinamide]	≤ 10
> 100	≤ 10	CC(C)(O)COc1cc(-c2ccc(N3C[C@@H]4C[C@@](C)(NC(=O)c5ncccc5C#N)C[C@@H]4C3)nc2)c2c(C#N)cnn2c1 [Example 127, 3-cyano-N-((3aR,5s,6aS)-2-(5-(3-cyano-6-(2-hydroxy-2-methylpropoxy)pyrazolo[1,5-a]pyridin-4-yl)pyridin-2-yl)-5-methyloctahydrocyclopenta[c]pyrrol-5-yl)picolinamide]	10 to 50
